pIC50: −log10 of the molar value. ≈ marks a conversion by molar mass, not a printed value.
Tests used:
[1] = Protein binding (plasma equilibrium dialysis); assay type: in vitro ADME; settings: 5 hours at 37° C.; for fraction unbound at 5 h, 1 μM: read-out: Protein Binding Fraction Bound (converted)
Experimental: For testing protein binding of stock compounds solubilized in DMSO, spiking solutions of test and reference compounds were prepared. Solution A (0.5 mM) was prepared by adding 10 μL of 10 mM stock solution into 190 μL of DMSO. Solution B (0.02 mM) was prepared by adding 8 μL of Solution A into 192 μL of 0.05 M sodium phosphate buffer. The final DMSO concentration in Solution B was 4%.
To prepare test and reference compounds in plasma, a 96-well plate with 380 μL aliquots of plasma in the wells designed for plasma and buffer, respectively. Twenty μL of Solution B (0.02 mM of test and reference compounds) were spiked into the pre-loaded plasma in the 96-well plate. The final test concentration is 1 μM containing 0.2% DMSO.
For dialysis sample loading a plasma again buffer system was prepared by applying aliquots of 100 μL of blank dialysis buffer to the receiver side of dialysis chambers and then applying aliquots of 100 μL of the plasma spiked with test and reference compounds to the donor side of the dialysis chamber. A 25-μL aliquot of the plasma spiked with test and reference compounds was added into a 96-well sample preparation plate as T″0″ plasma samples. Aliquots were mixed with the same volume of blank buffer (50:50, volume:volume). Samples were quenched with 200 μL of acetonitrile containing internal standard. The dialysis block was covered and a shaken at 60 rpm for 5 hours at 37° C.
After a 5-hour incubation, dialyzed samples were prepared from 25-μL aliquots from both the donor and receiver sides of the dialysis apparatus into new sample preparation plates. The aliquots were mixed with same volume of opposite matrixes. The samples were quenched with 200 μL acetonitrile containing internal standard. All 0-hour and 5-hour samples were vortexed at 600 rpm for 10 min followed by centrifugation at 5594×g for 15 minutes (Thermo Multifuge×3R). Fifty μL of the supernatants were transferred to anew 96-well plate and mixed with 50 μL Milli-Q water. The sample plate was covered and frozen at −20° C. until LC/MS/MS analysis.

[2] = target: recombinant full-length human hydroxyacid oxidase 1 (HAO1), the equivalent of hGOX (Homo sapiens (Human), UniProt Q9UJM8); test: In-vitro human glycolate oxidase (hGOX) assay (Amplex red/HRP fluorescence); assay type: biochemical
Sequence of recombinant full-length human hydroxyacid oxidase 1 (HAO1), the equivalent of hGOX (Q9UJM8 whole entry): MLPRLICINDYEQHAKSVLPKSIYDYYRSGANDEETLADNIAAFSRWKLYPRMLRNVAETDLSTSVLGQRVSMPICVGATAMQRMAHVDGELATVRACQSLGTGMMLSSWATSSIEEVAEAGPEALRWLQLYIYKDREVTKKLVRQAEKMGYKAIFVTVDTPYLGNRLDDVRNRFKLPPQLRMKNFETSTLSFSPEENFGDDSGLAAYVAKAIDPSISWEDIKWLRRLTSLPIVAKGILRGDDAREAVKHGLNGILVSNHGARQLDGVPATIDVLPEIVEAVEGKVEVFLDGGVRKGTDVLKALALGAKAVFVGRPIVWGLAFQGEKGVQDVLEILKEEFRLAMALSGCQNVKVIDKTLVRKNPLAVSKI
Experimental: Biological Activity Assay: In-Vitro Human Glycolate Oxidase (hGOX) Assay
The in-vitro glycolate oxidase assay was performed using recombinant full-length human hydroxyacid oxidase 1 (HAO1), the equivalent of hGOX. […] Purified HAO1 was dissolved in assay buffer consisting of 10 mM NaCl, 110 mM KCl, 2 mM MgCl2, 50 mM HEPES (pH 7.4) and 0.01% Triton™ X-100.

[3] = target: glycolate oxidase (GOX) in HepaRG-CAR cells (Homo sapiens (Human), UniProt Q9UJM8); test: HepaRG-CAR cell-based assay for quantitation of glycolate oxidase inhibition (cellular glycolate flux, GC-MS); settings: HepaRG-CAR cells, 500 μM glycolate, 48 hours incubation; read-out: IC50
Sequence of glycolate oxidase (GOX) in HepaRG-CAR cells (Q9UJM8 whole entry): as above

[4] = Stability in human plasma; assay type: in vitro ADME; settings: read-out: Plasma Stability T1/2
Experimental: Stability in Human Plasma.
Stock compounds were prepared for testing the stability in human plasma. First, 0.05 M sodium phosphate and 0.07 M NaCl buffer, pH 7.4, were pre-heated. In deionized water, 14.505 g/L Na2HPO 12H2O, 1.483 g/L NaH2PO4.2H2O and 4.095 g/L NaCl were dissolved. The basic solution was titrated with the phosphoric acid to pH 7.40. Frozen plasma was quickly thawed at 37° C. The plasma was centrifuged at 3,000 rpm for 8 minutes to remove clots, then pipetted and pooled as the plasma stock for the experiment. Only plasma within the range of pH 7.4 to pH 8 was used. If higher than pH 8, the plasma was discarded. The initial pH of the plasma was not adjusted to pH 7.4 with acid or by bubbling with carbon dioxide. By using a 5% carbon dioxide incubator and PBS buffer, a pH of 7.4 will be reached after the 4-hour equilibrium dialysis time. Plasma was iced until use.
Spiking solution A with 0.5 mM testing compounds was prepared by adding 10 μL of 10 mM test compounds stock solution to 190 μL DMSO. Spiking solution B with 0.02 mM testing compound was prepared by adding 40 μL of spiking solution A to 960 μL of […] sodium phosphate buffer with 0.5% BSA. The plasma and spiking solution B were prewarmed at 37° C. for 5 minutes. Ten μL of pre-warmed spiking solution B was added into the wells designated for all the time points (5, 15, 30, 45, 60 minutes). For the 0-minute timepoint, 400 μL acetonitrile containing internal standard were added to the wells of 0-minute plate and then 90 μL plasma were added. For the other timepoints, 90 μL of pre-warmed plasma were added into the wells (0, 5, 15, 30, 45, 60 minutes) and the timing was started. At 5, 15, 30, 45, 60 minutes, 400 μL acetonitrile containing internal standard were added to the wells of corresponding plates, respectively, to stop the reaction. After quenching, the plates were shaken on a vibrator (IKA, MTS 2/4) for 10 minutes at 600 rpm and then centrifuged at 5594×g for 15 minutes (Thermo Multifuge×3R). Fifty μL of supernatant was transferred from each well into a 96-well sample plate containing 50 μL ultra-pure water (Millipore, ZMQS50F01) for LC/MS analysis.

[5] = Solubility in phosphate buffered saline (PBS), pH 7.4; assay type: physicochemical; settings: phosphate buffer (PBS), aqueous buffer, kinetic from dmso stock; phosphate buffered saline pH 7.4, 1% DMSO, 1 hour shaking at room temperature
Experimental: (§1) For testing compound solubility in phosphate buffered saline (PBS), compound stock solutions were prepared at 10 mM in 100% DMSO. For testing in aqueous solution, the phosphate buffer was replaced with deionized, distilled water. Eleven grams Na2HPO4 (FW: 141.96 g/mol) and 3.5 g NaH2PO4.2H2O (FW: 156.03 g/mol) was added to 1 L Milli-Q water and adjusted to a pH to 7.4 with phosphoric acid or sodium hydroxide. For incubation, media were preheated to 37° C. Eight μL aliquots of reference and test compound stock solutions (10 mM) were added into 792 μL of 100 mM phosphate buffer (pH 7.4). The final DMSO concentration was 1%. Sample tubes were shaken for 1 hour at 1000 rpm at room temperature.
(§2) The calibration curve was prepared with 300-μM spiking solution (SS) in MeOH:acetonitrile (4:1). Six μL of 10 mM compound was added in 194 μL MeOH/acetonitrile (4:1). Samples were centrifuged for 10 minutes at 12,000 rpm to precipitate undissolved particles. Supernatants were transferred to a new tube or plate and dilute 10-fold and 100-fold with 100 mM buffer. Samples were prepared for LC-MS/MS analysis by adding 5 μL each sample (undiluted, 10-fold diluted, and 100-fold diluted) and 5 μL of standard curve samples to 95 μL of acetonitrile (containing internal standard).

[6] = Solubility in aqueous solution (deionized, distilled water); assay type: physicochemical; settings: kinetic from dmso stock, 1% DMSO, read-out: Aqueous Solubility H2O
Experimental: as §1, §2

[7] = Metabolic stability in human liver microsomal preparation; assay type: in vitro ADME; settings: pH 7.4, human liver microsomes, NADPH, 37° C.; for half-life at 1 μM: 0-45 min, read-out: Metabolic Stability t1/2
Experimental: For evaluating the metabolic stability in human liver microsomal preparation, three buffers were prepared. Buffer A had 1.0 L of 0.1 M monobasic potassium phosphate buffer containing 1.0 mM EDTA. Buffer B had 1.0 L of 0.1 M dibasic potassium phosphate buffer containing 1.0 mM EDTA. Buffer C had 0.1 M potassium phosphate buffer, 1.0 mM EDTA, adjusted to a pH 7.4 via titrating 700 mL buffer B with buffer A. Reference compound (ketanserin) and test compounds spiking solutions (500 μM) were prepared by adding 10 μL of 10 mM DMSO stock compound solution into 190 μL acetonitrile. A volume of 1.5 μL 500 μM spiking solution and 18.75 μL 20 mg/mL human liver microsomes were added into 479.75 μL of Buffer C on ice. A stock solution of 6 mM NADPH was prepared by dissolving NADPH into Buffer C.
Wells on an assay plate were iced and filled with 30 μL 1.5-μM spiking solution containing 0.75 mg/mL microsomes solution and designated for different timepoints (0-, 5-, 15-, 30-, 45-min). For the 0-min timepoint, 135 μL acetonitrile containing internal standard were added followed by 15 μL of NADPH stock solution (6 mM). All other plates were preincubated at 37° C. for 5 minutes and 15 μL NADPH stock solution (6 mM) were added to the plates to start the reaction. At 5-min, 15-min, 30-min, and 45-min, 135 μL acetonitrile containing internal standard were added to the wells of corresponding plates, respectively, to stop the reaction. After quenching, the plates were shaken on the vibrator (IKA, MTS 2/4) for 10 min at 600 rpm and then centrifuged at 5594×g for 15 minutes (Thermo Multifuge×3R). Fifty μL supernatant from each well were transported into a 96-well sample plate containing 50 μL of ultra-pure water (Millipore, ZMQS50F01) for LC/MS analysis.

Structure (SMILES) | recovery at 5 h, 1 μM [1] | pIC50 [2] | pIC50 [3] | half-life at 2 μM [4] | solubility at 1 h [5] | solubility at 1 h [6] | CLint scaled at 1 μM [7] | half-life at 1 μM [7] | fraction unbound at 5 h, 1 μM [1]
O=C(O)c1[nH]nnc1Oc1ccc(-c2ccc(Cl)cc2)cc1 [Example I-152, 5-((4′-Chloro-[1,1′-biphenyl]-4-yl)oxy)-1H-1,2,3-triazole-4-carboxylic acid] | 97.7% | 7.77 | 5.00 | 3.22 h |  |  |  |  | 
O=C(O)c1nn[nH]c1Oc1cccc(C2CCCCC2)c1 [Example I-268, 5-(3-Cyclohexylphenoxy)-1H-1,2,3-triazole-4-carboxylic acid] | 106% | 7.29 |  | 1.84 h | 97.6 µM (≈ 28 µg/mL) | 111 µM (≈ 31.9 µg/mL) | 84.2 mL/min/kg | 0.344 h | 
O=C(O)c1[nH]nnc1Oc1ccc(Cl)c(Cl)c1 [Example I-050, 5-(3,4-Dichlorophenoxy)-1H-1,2,3-triazole-4-carboxylic acid] | 71.2% | 7.92 |  | 2.35 h | 120 µM (≈ 33 µg/mL) | 102 µM (≈ 28 µg/mL) | 2.47 mL/min/kg | 11.7 h | 
O=C(O)c1nn[nH]c1Oc1cccc(-c2ccc3ccccc3c2)c1 [Example I-178, 5-(3-(Naphthalen-2-yl)phenoxy)-1H-1,2,3-triazole-4-carboxylic acid] | 109% | 4.89 |  | 0.985 h | 97.9 µM (≈ 32.4 µg/mL) | 83.4 µM (≈ 27.6 µg/mL) | 7.08 mL/min/kg | 4.09 h | 
C=Cc1ccc(Oc2[nH]nnc2C(=O)O)cc1 [Example I-285, 5-(4-Vinylphenoxy)-1H-1,2,3-triazole-4-carboxylic acid] | 98.8% | 7.42 |  | 8.02 h | 101 µM (≈ 23.4 µg/mL) | 97.6 µM (≈ 22.6 µg/mL) | < 0.15 mL/min/kg | > 83.3 h | 0.012
O=C(O)c1nn[nH]c1Sc1ccc(-c2ccccc2)cc1 [Example I-128, 5-([1,1′-Biphenyl]-4-ylthio)-1H-1,2,3-triazole-4-carboxylic acid] | 126% | 6.64 |  | 0.755 h | 122 µM (≈ 36.4 µg/mL) | 106 µM (≈ 31.5 µg/mL) | 10.1 mL/min/kg | 2.87 h | 
CC(C)Cc1ccc(Oc2[nH]nnc2C(=O)O)cc1 [Example I-299, 5-(4-Isobutylphenoxy)-1H-1,2,3-triazole-4-carboxylic acid] | 114% | 7.48 |  | 1.22 h | 104 µM (≈ 27.1 µg/mL) | 98.4 µM (≈ 25.7 µg/mL) | 11.3 mL/min/kg | 2.55 h | 0.002
CCCC(C)c1ccc(Oc2[nH]nnc2C(=O)O)cc1 (stereo not drawn) [Example I-273, 5-(4-(Pentan-2-yl)phenoxy)-1H-1,2,3-triazole-4-carboxylic acid] | 99.9% | 7.35 |  | 2.2 h | 112 µM (≈ 30.8 µg/mL) | 108 µM (≈ 29.7 µg/mL) | 35.2 mL/min/kg | 0.822 h | 0.003
CCC(CC)c1ccc(Oc2[nH]nnc2C(=O)O)cc1 [Example I-272, 5-(4-(Pentan-3-yl)phenoxy)-1H-1,2,3-triazole-4-carboxylic acid] | 101% | 7.08 |  | 4.61 h | 103 µM (≈ 28.3 µg/mL) | 96.6 µM (≈ 26.6 µg/mL) | 65.3 mL/min/kg | 0.443 h | 
CC(C)=Cc1cccc(Oc2[nH]nnc2C(=O)O)c1 [Example I-286, 5-(3-(2-Methylprop-1-en-1-yl)phenoxy)-1H-1,2,3-triazole-4-carboxylic acid] | 103% | 7.85 |  | 3.45 h | 92.6 µM (≈ 24 µg/mL) | 95.8 µM (≈ 24.8 µg/mL) | 15.1 mL/min/kg | 1.92 h | 0.002
O=C(O)c1nn[nH]c1Oc1ccc(-c2ccc3ccccc3c2)cc1 [Example I-177, 5-(4-(Naphthalen-2-yl)phenoxy)-1H-1,2,3-triazole-4-carboxylic acid] | 99.3% | 7.92 |  | 1.12 h | 89.3 µM (≈ 29.6 µg/mL) | 45.7 µM (≈ 15.1 µg/mL) | 3.07 mL/min/kg | 9.43 h | 

Source: US11389456B2, “Compounds and methods for treating oxalate-related diseases” (OxaluRx, Inc., priority 2018, dated 2022)
